The text below walks through data of paper PMC1810525, “Antagonism of the prostaglandin D2 receptor CRTH2 attenuates asthma pathology in mouse eosinophilic airway inflammation” (Respiratory Research, 2007).

Like-named read-outs stand apart in the source and are kept apart here.

One test has as its target T1, mTP (Mus musculus, UniProt P30987).
T1 construct: expressed in transfected cells; host or cells: HEK293 (transient, pcDNA3.1(+))
T1 sequence (P30987 1-341): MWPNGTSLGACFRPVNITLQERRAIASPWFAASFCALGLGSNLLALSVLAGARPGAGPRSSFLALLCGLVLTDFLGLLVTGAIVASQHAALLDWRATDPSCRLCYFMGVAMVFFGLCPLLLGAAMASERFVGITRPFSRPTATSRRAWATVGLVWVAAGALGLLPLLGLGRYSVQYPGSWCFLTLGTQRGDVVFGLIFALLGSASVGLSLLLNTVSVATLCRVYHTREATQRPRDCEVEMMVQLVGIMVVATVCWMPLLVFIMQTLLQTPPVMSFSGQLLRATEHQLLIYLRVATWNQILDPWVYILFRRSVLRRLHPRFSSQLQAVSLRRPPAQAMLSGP
The test can be described thus: Inositol phosphate accumulation assay, HEK cells transfected with mTP (Schild analysis vs U46619). It is filed as cell-based. An excerpt:
(§1) The coding sequence of mCRTH2 (genbank accession no. AF054507) was amplified by PCR from mouse hippocampus cDNA and inserted into the pcDNA3.1(+) expression vector (invitrogen). A HEK293 cell line, stably expressing mCRTH2 (hereafter referred to as mCRTH2-HEK cells) was generated under G418 (Gibco #11811) selection and used as described below in whole cell binding and functional inositol phosphate accumulation assays. The coding sequence of mTP (genbank accession no. D10849) was amplified by PCR from mouse spleen cDNA and inserted into pcDNA3.1(+). HEK293 cells were transiently transfected with mTP as described and assayed after 48 hr as outlined below.
mCRTH2-HEK or HEK cells transiently transfected with mTP were seeded at a density of 30.000 cells/well in poly-D-lysine coated 96-well tissue culture plates and labeled by overnight incubation in medium containing 5 μCi myo- [2-^3H]-inositol (TRK911, Amersham Biosciences). After washing, cells were stimulated with the respective ligands in the presence of 5 mM LiCl (HBSS, GIBCO cat. 14025–050, 45 min, 37°C) and the inositol phosphate fraction was quantified using a scintillation proximity assay (SPA) as described previously. To facilitate inositol phosphate generation by the Gi-selective CRTH2 receptor, mCRTH2-HEK cells were transiently transfected with a promiscuous Gα protein [29].
(§2) was performed using the Prism 3.0 software (GraphPad Software, San Diego) as described previously with the following exceptions: Binding data from competition binding assays were normalized to percent of specific binding of [^3H]PGD2 or [^3H]SQ29548 and the Ki was then determined using the Cheng-Prusoff equation Ki = IC50/(1+L/Kd), where L is the concentration of radioactive ligand and Kd is its dissociation constant. For Schild analysis, global fitting using the Gaddum/Schild competitive interaction model was applied after the functional concentration-response curves for the agonists PGD2 or U46619 in the absence or presence of various antagonist concentrations were normalized to percent of the maximal response obtained by agonist alone.

The target of a further test is T2, mCRTH2 (Mus musculus, UniProt Q9Z2J6).
T2 construct: expressed in transfected cells
T2 sequence (Q9Z2J6 1-382): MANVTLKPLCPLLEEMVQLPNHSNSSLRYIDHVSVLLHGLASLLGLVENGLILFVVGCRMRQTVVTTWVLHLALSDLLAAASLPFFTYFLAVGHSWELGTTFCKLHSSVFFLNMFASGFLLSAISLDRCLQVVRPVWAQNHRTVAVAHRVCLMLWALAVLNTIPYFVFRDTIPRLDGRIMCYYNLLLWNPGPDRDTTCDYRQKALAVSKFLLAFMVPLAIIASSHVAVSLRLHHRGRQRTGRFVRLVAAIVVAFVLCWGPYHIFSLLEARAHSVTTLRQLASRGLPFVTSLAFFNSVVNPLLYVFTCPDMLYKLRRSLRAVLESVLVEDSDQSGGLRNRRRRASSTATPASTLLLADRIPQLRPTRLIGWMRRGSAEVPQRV
The test can be described thus: mCRTH2 whole cell competition binding ([3H]PGD2). The following applies: displacement of [3H]PGD2, mCRTH2-HEK cells.
From the text: as §1
Binding assays were performed essentially as described previously. In brief, mCRTH2-HEK cells or HEK cells transiently transfected with mTP were seeded into white 96 well plates (Costar #3917) at a density of 30.000 cells/well. About 18–24 hr later, whole cell competition binding experiments were performed using 0.8 nM [^3H]PGD2 (Amersham #TRK734, 166 Ci/mmol) or 0.7 nM [^3H]SQ29548 (PerkinElmer #NET-936, 48.2 Ci/mmol), for mCRTH2 and mTP respectively. Total and nonspecific binding were determined in the absence and presence of 10 μM PGD2 for mCRTH2 and 10 μM U46619 for mTXA2 receptors.
as §2

In test [1] the test system is OVA-challenged BALB/c mice. The test can be described thus: Mouse model of allergic asthma (OVA), bronchoalveolar lavage eosinophils. In kind it is in vivo. To be noted: 5 mg/kg orally twice daily, 24 hr after second challenge, allergen/vehicle 1.0 ± 0.2 %. An excerpt: Female BALB/c mice about 6 weeks of age (MoB A/S; Ry, Denmark) were kept in well-controlled animal housing facilities and fed ad libitum. The study was approved by the Regional Ethics Committee in Malmoe-Lund, Sweden. […] Sigma) at day 0 as described previously. […] Control animals received saline challenge. Animals were sacrificed 24 hr after the last allergen challenge by pentobarbital i.p followed by bronchoalveolar lavage (BAL) and lung tissue sampling. In preliminary studies it was ascertained that daily allergen challenges for only a few days sufficed to produce a significant airway tissue eosinophilia as well as goblet cell hyperplasia. On days 14 and 15 mice were treated twice daily with TM30089 and ramatroban (BAY3405), 5 mg/kg orally. […] Drugs were administered 30 minutes before and 4 hr after each challenge. The dose of ramatroban was selected in accord with previous reports. […] The total number of cells was quantified using a […] (NucleoCounter®, Chemometec A/S, Allerod, Denmark) and 5 × 10^5 cells cytocentrifuged to microscope slides. Differential cell counts were performed on May-Grünwald Giemsa stained slides and percentage of eosinophils, lymphocytes, neutrophils, and macrophages determined by counting 200–300 cells in a blinded manner. […]

In the case of `CN(C1CCc2c(c3ccccc3n2CC(=O)O)C1)S(=O)(=O)c1ccc(F)cc1` (centres unmarked) [TM30089], on mTP (InsP functional assay), the “effect on signaling of mTP” value was “does not interfere with signaling of mTP”. In addition, the “pKi mCRTH2” value on mCRTH2 was 8.96 ± 0.05. On mCRTH2 (printed in brackets after pKi, read-out: Ki mCRTH2), the Ki came out at 1.1 nM. This compound registered a BALF eosinophils in test [1] of 0.5 ± 0.01%.

`O=C(O)CCn1c2c(c3ccccc31)C[C@H](NS(=O)(=O)c1ccc(F)cc1)CC2` [ramatroban, reference compound]: at mTP (Schild analysis, U46619 concentration-response, InsP), the “Schild slope mTP” value is listed as 1.35 ± 0.06. Besides, at mTP (Schild analysis, U46619 concentration-response, InsP, read-out: pA2 mTP (converted)), the Kb is 0.437 nM. Also, the Ki on mCRTH2 (read-out: pKi mCRTH2 (converted)) was 4.17 nM. In test [1], the BALF eosinophils turned out to be 0.4 ± 0.01%.
